Tests used:
MKN-45 cells = assay: Inhibition of MKN-45 proliferation (MTT); type: cell-based, human; conditions: for inhibition at 0.1 µM / inhibition at 1 µM: Homo sapiens, MKN-45, MKN-45 proliferation
Outline: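 High-Met human gastric adenocarcinoma MKN-45 cells plated in complete growth medium, compounds added next day and viability read 3 days later by MTT dye reduction.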

Compound	melting point [°C]	inhibition at 0.1 µM (MKN-45 cells; 0.1 μM) [%]	inhibition at 1 µM (MKN-45 cells; number printed instead of class) [%]	inhibition at 1 µM (MKN-45 cells) [%]	Inhibition (% Inhibition of MKN-45 proliferation) (MKN-45 cells; MKN-45 proliferation, 0.1 μM)
Fc1ccc(-c2ccc3nnn(Cc4ccc5ncccc5c4)c3n2)cc1 [Ex 67, 6-((5-(4-Fluorophenyl)-3H-[1,2,3]triazolo[4,5-b]pyridin-3-yl)methyl)quinoline]	153 to 156	< 25	13.8		
Fc1ccccc1-c1ccc2nnn(Cc3ccc4ncccc4c3)c2n1 [Ex 68, 6-((5-(2-Fluorophenyl)-3H-[1,2,3]triazolo[4,5-b]pyridin-3-yl)methyl)quinoline]	164 to 166	< 25		< 25	
CC(=O)Nc1cccc(-c2ccc3nnn(Cc4ccc5ncccc5c4)c3n2)c1 [Ex 69, N-(3-(3-(quinolin-6-ylmethyl)-3H-[1,2,3]triazolo[4,5-b]pyridin-5-yl)phenyl)acetamide]	198 to 201	< 25		< 25	
FC(F)(F)COc1cccc(-c2ccc3nnn(Cc4ccc5ncccc5c4)c3n2)c1 [Ex 70, 6-((5-(3-(2,2,2-Trifluoroethoxy)phenyl)-3H-[1,2,3]triazolo[4,5-b]pyridin-3-yl)methyl)quinoline]	151 to 154	< 25		< 25	
Nc1cccc(-c2ccc3nnn(Cc4ccc5ncccc5c4)c3n2)c1 [Ex 71, 3-(3-(quinolin-6-ylmethyl)-3H-[1,2,3]triazolo[4,5-b]pyridin-5-yl)aniline]	187 to 189	< 25		25 to 50	
CC(C)Oc1ccc(-c2ccc3nnn(Cc4ccc5ncccc5c4)c3n2)cc1F [Ex 75, 6-((5-(3-Fluoro-4-isopropoxyphenyl)-3H-[1,2,3]triazolo[4,5-b]pyridin-3-yl)methyl)quinoline]	128 to 130	< 25		< 25	
Fc1cc(-c2ccc3nnn(Cc4ccc5ncccc5c4)c3n2)ccc1OCC1CC1 [Ex 79, 6-((5-(4-(Cyclopropylmethoxy)-3-fluorophenyl)-3H-[1,2,3]triazolo[4,5-b]pyridin-3-yl)methyl)quinoline]	160 to 162	< 25		50 to 75	
CC(C)COc1ccc(-c2ccc3nnn(Cc4ccc5ncccc5c4)c3n2)cc1F [Ex 80, 6-((5-(3-Fluoro-4-isobutoxyphenyl)-3H-[1,2,3]triazolo[4,5-b]pyridin-3-yl)methyl)quinoline]	115 to 157	< 25		25 to 50	
Fc1cc(-c2ccc3nnn(Cc4ccc5ncccc5c4)c3n2)ccc1OC1CCOCC1 [Ex 85, 6-((5-(3-Fluoro-4-(tetrahydro-2H-pyran-4-yloxy)phenyl)-3H-[1,2,3]triazolo[4,5-b]pyridin-3-yl)methyl)quinoline]	165 to 167	< 25		75 to 100	
CC(C)NS(=O)(=O)c1ccc(-c2ccc3nnn(Cc4ccc5ncccc5c4)c3n2)cc1 [Ex 95, N-Isopropyl-4-(3-(quinolin-6-ylmethyl)-3H-[1,2,3]triazolo[4,5-b]pyridin-5-yl)benzenesulfonamide]	154 to 156	< 25		50 to 75	
CN(C)c1cccc(-c2ccc3nnn(Cc4ccc5ncccc5c4)c3n2)c1 [Ex 96, N,N-Dimethyl-3-(3-(quinolin-6-ylmethyl)-3H-[1,2,3]triazolo[4,5-b]pyridin-5-yl)aniline]	124 to 126	< 25		< 25	
CNC(=O)c1ccc(-c2ccc3nnn(C(C)(C)c4ccc5ncccc5c4)c3n2)cc1F [Ex 103, 2-Fluoro-N-methyl-4-(3-(2-(quinolin-6-yl)propan-2-yl)-3H-[1,2,3]triazolo[4,5-b]pyridin-5-yl)benzamide]	171 to 173	< 25			

Further lines, with some results ahead:

melting point [°C]	Compound	inhibition at 0.1 µM (MKN-45 cells; 0.1 μM) [%]	inhibition at 1 µM (MKN-45 cells; number printed instead of class) [%]	inhibition at 1 µM (MKN-45 cells) [%]	Inhibition (% Inhibition of MKN-45 proliferation) (MKN-45 cells; MKN-45 proliferation, 0.1 μM)
148 to 150	CN(C)CCCNC(=O)c1ccc(-c2ccc3nnn(Cc4ccc5ncccc5c4)c3n2)cc1F [Ex 72, N-(3-(dimethylamino)propyl)-2-fluoro-4-(3-(quinolin-6-ylmethyl)-3H-[1,2,3]triazolo[4,5-b]pyridin-5-yl)benzamide]				D (D = <25%)
163 to 165	CN(C)C(=O)CCNC(=O)c1ccc(-c2ccc3nnn(Cc4ccc5ncccc5c4)c3n2)cc1F [Ex 76, N-(3-(dimethylamino)-3-oxopropyl)-2-fluoro-4-(3-(quinolin-6-ylmethyl)-3H-[1,2,3]triazolo[4,5-b]pyridin-5-yl)benzamide]	75 to 100		50 to 75	
177 to 179	CN(C)C(=O)CNC(=O)c1ccc(-c2ccc3nnn(Cc4ccc5ncccc5c4)c3n2)cc1F [Ex 77, N-(2-(dimethylamino)-2-oxoethyl)-2-fluoro-4-(3-(quinolin-6-ylmethyl)-3H-[1,2,3]triazolo[4,5-b]pyridin-5-yl)benzamide]	50 to 75		50 to 75	
175 to 177	O=C(NCC(=O)N1CCCC1)c1ccc(-c2ccc3nnn(Cc4ccc5ncccc5c4)c3n2)cc1F [Ex 78, 2-Fluoro-N-(2-oxo-2-(pyrrolidin-1-yl)ethyl)-4-(3-(quinolin-6-ylmethyl)-3H-[1,2,3]triazolo[4,5-b]pyridin-5-yl)benzamide]	50 to 75		50 to 75	
102 to 105	CN(C)CCCOc1ccc(-c2ccc3nnn(Cc4ccc5ncccc5c4)c3n2)cc1F [Ex 81, 3-(2-Fluoro-4-(3-(quinolin-6-ylmethyl)-3H-[1,2,3]triazolo[4,5-b]pyridin-5-yl)phenoxy)-N,N-dimethylpropan-1-amine]	50 to 75		75 to 100	
122 to 124	COCCOc1ccc(-c2ccc3nnn(Cc4ccc5ncccc5c4)c3n2)cc1F [Ex 86, 6-((5-(3-Fluoro-4-(2-methoxyethoxy)phenyl)-3H-[1,2,3]triazolo[4,5-b]pyridin-3-yl)methyl)quinoline]	< 25		75 to 100	
157 to 159	CCCNC(=O)c1ccc(-c2ccc3nnn(Cc4ccc5ncccc5c4)c3n2)cc1F [Ex 87, 2-Fluoro-N-propyl-4-(3-(quinolin-6-ylmethyl)-3H-[1,2,3]triazolo[4,5-b]pyridin-5-yl)benzamide]	75 to 100		< 25	
105 to 107	Cl.O=C(NC1CC1)c1ccc(-c2ccc3nnn(Cc4ccc5ncccc5c4)c3n2)cc1F [Ex 89, N-Cyclopropyl-2-fluoro-4-(3-(quinolin-6-ylmethyl)-3H-[1,2,3]triazolo[4,5-b]pyridin-5-yl)benzamide hydrochloride]	75 to 100		< 25	
120 to 122	O=C(NCC1CC1)c1ccc(-c2ccc3nnn(Cc4ccc5ncccc5c4)c3n2)cc1F [Ex 90, N-(Cyclopropylmethyl)-2-fluoro-4-(3-(quinolin-6-ylmethyl)-3H-[1,2,3]triazolo[4,5-b]pyridin-5-yl)benzamide]	50 to 75		75 to 100	
100 to 102	CCCCNC(=O)c1ccc(-c2ccc3nnn(Cc4ccc5ncccc5c4)c3n2)cc1F [Ex 91, N-Butyl-2-fluoro-4-(3-(quinolin-6-ylmethyl)-3H-[1,2,3]triazolo[4,5-b]pyridin-5-yl)benzamide]	25 to 50		50 to 75	
144 to 147	O=C(NCc1ccco1)c1ccc(-c2ccc3nnn(Cc4ccc5ncccc5c4)c3n2)cc1F [Ex 92, 2-Fluoro-N-(furan-2-ylmethyl)-4-(3-(quinolin-6-ylmethyl)-3H-[1,2,3]triazolo[4,5-b]pyridin-5-yl)benzamide]			< 25	
194 to 196	O=C(NCC(F)(F)F)c1ccc(-c2ccc3nnn(Cc4ccc5ncccc5c4)c3n2)cc1F [Ex 93, 2-Fluoro-4-(3-(quinolin-6-ylmethyl)-3H-[1,2,3]triazolo[4,5-b]pyridin-5-yl)-N-(2,2,2-trifluoroethyl)benzamide]	25 to 50		25 to 50	
162 to 164	COCCNC(=O)c1ccc(-c2ccc3nnn(Cc4ccc5ncccc5c4)c3n2)cc1F [Ex 94, 2-Fluoro-N-(2-methoxyethyl)-4-(3-(quinolin-6-ylmethyl)-3H-[1,2,3]triazolo[4,5-b]pyridin-5-yl)benzamide]	50 to 75		< 25	
158 to 160	CC(C)CNC(=O)c1ccc(-c2ccc3nnn(Cc4ccc5ncccc5c4)c3n2)cc1F [Ex 97, 2-Fluoro-N-isobutyl-4-(3-(quinolin-6-ylmethyl)-3H-[1,2,3]triazolo[4,5-b]pyridin-5-yl)benzamide]	25 to 50		25 to 50	
166 to 168	O=C(NC1CCCC1)c1ccc(-c2ccc3nnn(Cc4ccc5ncccc5c4)c3n2)cc1F [Ex 98, N-Cyclopentyl-2-fluoro-4-(3-(quinolin-6-ylmethyl)-3H-[1,2,3]triazolo[4,5-b]pyridin-5-yl)benzamide]	25 to 50		50 to 75	
177 to 179	CC(C)NC(=O)c1ccc(-c2ccc3nnn(Cc4ccc5ncccc5c4)c3n2)cc1F [Ex 99, 2-Fluoro-N-isopropyl-4-(3-(quinolin-6-ylmethyl)-3H-[1,2,3]triazolo[4,5-b]pyridin-5-yl)benzamide]	50 to 75		50 to 75	
128 to 130	CCCNC(=O)c1ccc(-c2ccc3nnn(Cc4ccc5ncccc5c4)c3n2)cc1Cl [Ex 102, 2-Chloro-N-propyl-4-(3-(quinolin-6-ylmethyl)-3H-[1,2,3]triazolo[4,5-b]pyridin-5-yl)benzamide]	50 to 75		75 to 100	

— US10590129B2 (Incozen Therapeutics Pvt. Ltd., priority 2010, dated 2020)
